Experimental data published in ChEMBL document CHEMBL1201862, “PubChem BioAssay data set” (2004).
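Cultured in 96-well plates, cells were exposed to test compound for 48 hours across five concentrations. Here, GI50 denotes the concentration required for 50% inhibition of growth.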 Calls of active or inactive are those of the source. No stated cut-off is given here; in the data, active = GI50 up to about 1.1 µM and inactive = higher.

Experiments:
Assay in all cases: NCI tumour cell line growth inhibition, 48 h
M14 = tested on: M14
SN12C = tested on: SN12C
UACC-62 = tested on: UACC-62
HOP-62 = tested on: HOP-62
TK-10 = tested on: TK-10
BT-549 = tested on: BT-549
SF-268 = tested on: SF-268
CAKI-1 = tested on: CAKI-1
SW-620 = tested on: SW-620
HCT-116 = tested on: HCT-116
OVCAR-4 = tested on: OVCAR-4
K562 = tested on: K562
LOX IMVI = tested on: LOX IMVI
NCI-H226 = tested on: NCI-H226
CCRF-CEM = tested on: CCRF-CEM
MDA-N = tested on: MDA-N
HCT-15 = tested on: HCT-15
NCI/ADR-RES = tested on: NCI/ADR-RES
SK-MEL-5 = tested on: SK-MEL-5
HL-60 = tested on: HL-60

Measured: GI50

CSc1nc(NC2CC2)c2c(n1)Sc1nc3ccccc3n1N=C2
28.4 µM: HCT-15
inactive: M14 39.5 µM | SN12C 8.55 µM | UACC-62 17.9 µM | HOP-62 16.3 µM | TK-10 25.1 µM | BT-549 34.2 µM | SF-268 17.1 µM | CAKI-1 34.9 µM | SW-620 26.6 µM | HCT-116 9.73 µM | OVCAR-4 16.7 µM | K562 > 100 µM | LOX IMVI 31.8 µM | NCI-H226 16.8 µM | CCRF-CEM > 100 µM | MDA-N 40.2 µM | NCI/ADR-RES 20.3 µM | SK-MEL-5 17 µM

CCCCN/N=N/c1cn(C2OC(CO)C(O)C2O)c(=O)[nH]c1=O (stereo not drawn)
> 100 µM: HCT-15
inactive: M14 > 100 µM | SN12C > 100 µM | UACC-62 > 100 µM | HOP-62 > 100 µM | TK-10 > 100 µM | SF-268 > 100 µM | CAKI-1 > 100 µM | SW-620 > 100 µM | HCT-116 > 100 µM | OVCAR-4 > 100 µM | LOX IMVI > 100 µM | NCI-H226 > 100 µM | CCRF-CEM > 100 µM | MDA-N > 100 µM | NCI/ADR-RES > 100 µM | SK-MEL-5 > 100 µM | HL-60 > 100 µM

COCO[C@@H]1C[C@H]2C(=O)Nc3ccccc3C(=O)N2C1
> 100 µM: HCT-15
inactive: M14 > 100 µM | SN12C 88.1 µM | UACC-62 > 100 µM | HOP-62 39.8 µM | TK-10 71.4 µM | BT-549 35.3 µM | SF-268 36.4 µM | CAKI-1 36 µM | SW-620 50.7 µM | HCT-116 85.3 µM | OVCAR-4 > 100 µM | LOX IMVI 29.2 µM | NCI-H226 3.91 µM | MDA-N 39.2 µM | NCI/ADR-RES 79.1 µM | SK-MEL-5 24.1 µM

CCC(O)c1ccc(/N=C/c2ccccc2O)cc1 (stereo not drawn)
> 100 µM: HCT-15
inactive: M14 > 100 µM | UACC-62 > 100 µM | HOP-62 > 100 µM | TK-10 > 100 µM | BT-549 > 100 µM | SF-268 > 100 µM | CAKI-1 > 100 µM | SW-620 > 100 µM | HCT-116 74.1 µM | OVCAR-4 > 100 µM | K562 > 100 µM | LOX IMVI > 100 µM | NCI-H226 > 100 µM | NCI/ADR-RES > 100 µM | SK-MEL-5 > 100 µM | HL-60 > 100 µM

Clc1cc(OCc2nn3c(Cc4ccccc4)nnc3s2)ccc1OCc1nn2c(Cc3ccccc3)nnc2s1
47.8 µM: HCT-15
inactive: M14 87.7 µM | SN12C 45.3 µM | UACC-62 40.6 µM | HOP-62 31.8 µM | TK-10 29.4 µM | BT-549 25.8 µM | SF-268 29.8 µM | CAKI-1 21.1 µM | SW-620 79.8 µM | HCT-116 53.5 µM | OVCAR-4 19.4 µM | K562 95.9 µM | LOX IMVI 93.8 µM | NCI-H226 54.6 µM | NCI/ADR-RES 59.3 µM | SK-MEL-5 25.4 µM | HL-60 50.2 µM

Nc1ccc(S2(c3ccc(N)cc3)C=C(c3ccccc3)C(c3ccccc3)=C2)cc1
inactive: M14 > 72.8 µM | SN12C > 25.3 µM | UACC-62 > 35.6 µM | HOP-62 70.8 µM | TK-10 > 27.9 µM | SF-268 > 44.5 µM | SW-620 > 57.7 µM | HCT-116 > 36 µM | OVCAR-4 11 µM | K562 > 46.9 µM | LOX IMVI > 33.5 µM | NCI-H226 > 21.8 µM | CCRF-CEM > 100 µM | MDA-N > 30.2 µM | NCI/ADR-RES > 35.1 µM | SK-MEL-5 > 100 µM | HL-60 > 100 µM
> 54.2 µM: HCT-15

C=C(Br)CNC(=O)Nc1ccc(Cl)c(Cl)c1
inactive: M14 22.2 µM | SN12C 25.2 µM | UACC-62 18.8 µM | HOP-62 22.5 µM | TK-10 25.8 µM | SF-268 27.3 µM | CAKI-1 20.4 µM | SW-620 35.4 µM | HCT-116 17.1 µM | OVCAR-4 29.5 µM | K562 23.8 µM | LOX IMVI 19.7 µM | NCI-H226 25.4 µM | CCRF-CEM 19.3 µM | MDA-N 27.3 µM | NCI/ADR-RES 16.6 µM | SK-MEL-5 13.8 µM | HL-60 15.9 µM
30.5 µM: HCT-15

O=C(NNC(=O)c1csc(NC(=S)NC2CCCCC2)n1)c1ccccc1
2.74 µM: HCT-15
inactive: M14 13.5 µM | SN12C 5.97 µM | UACC-62 10.2 µM | HOP-62 14 µM | TK-10 22 µM | BT-549 17.3 µM | SF-268 5.66 µM | CAKI-1 18.6 µM | SW-620 10.3 µM | HCT-116 2.7 µM | OVCAR-4 3.34 µM | LOX IMVI 10.3 µM | NCI-H226 7.24 µM | CCRF-CEM 3.61 µM | MDA-N 13.9 µM | NCI/ADR-RES 4.85 µM | SK-MEL-5 6.71 µM

COc1cc2c(c(OC)c1OC)C(=O)[C@@H](O)[C@H]2NC(N)=O
inactive: M14 > 100 µM | SN12C > 100 µM | UACC-62 83.4 µM | HOP-62 > 100 µM | TK-10 > 100 µM | SF-268 > 100 µM | CAKI-1 > 100 µM | SW-620 > 100 µM | HCT-116 > 100 µM | K562 > 100 µM | LOX IMVI > 100 µM | NCI-H226 > 100 µM | CCRF-CEM > 100 µM | MDA-N > 100 µM | NCI/ADR-RES > 100 µM | SK-MEL-5 > 100 µM | HL-60 > 100 µM
> 100 µM: HCT-15

Cc1ccc(S(=O)(=O)N2CCCSCCSCCCN(S(=O)(=O)c3ccc(C)cc3)CC2)cc1
> 100 µM: HCT-15
inactive: M14 > 100 µM | SN12C > 100 µM | UACC-62 > 100 µM | HOP-62 > 100 µM | TK-10 > 100 µM | BT-549 > 100 µM | SF-268 > 100 µM | SW-620 > 100 µM | HCT-116 > 100 µM | OVCAR-4 > 100 µM | NCI-H226 > 100 µM | MDA-N > 100 µM | NCI/ADR-RES > 100 µM | SK-MEL-5 > 100 µM

Cc1nnc2n1N=C(c1ccccc1)/C(=C/c1ccc(-c3ccc(Cl)cc3)o1)S2
8.53 µM: HCT-15
inactive: M14 17.9 µM | SN12C 15.6 µM | UACC-62 12.4 µM | HOP-62 15.3 µM | TK-10 13.4 µM | BT-549 11.4 µM | SF-268 14.3 µM | CAKI-1 15.1 µM | SW-620 5 µM | HCT-116 12.2 µM | OVCAR-4 15.7 µM | K562 7.85 µM | NCI-H226 14.3 µM | CCRF-CEM 2.71 µM | MDA-N 11.6 µM | SK-MEL-5 13.6 µM | HL-60 4.36 µM

CC1CCOc2ccc(cc2)/C=N\c2ccc(cc2)CCc2ccc(cc2)/N=C\c2ccc(cc2)OCC1
> 100 µM: HCT-15
inactive: M14 > 100 µM | SN12C > 100 µM | UACC-62 > 100 µM | HOP-62 18.2 µM | BT-549 > 100 µM | SF-268 > 100 µM | CAKI-1 > 100 µM | SW-620 > 100 µM | HCT-116 > 100 µM | OVCAR-4 > 100 µM | K562 > 100 µM | LOX IMVI > 100 µM | NCI-H226 > 100 µM | CCRF-CEM 29.8 µM | MDA-N > 100 µM | NCI/ADR-RES > 100 µM | SK-MEL-5 > 100 µM

O=C(C=P(c1ccccc1)(c1ccccc1)c1ccccc1)c1ccc(-c2ccc(F)cc2F)cc1
inactive: M14 2.42 µM | SN12C 2.31 µM | UACC-62 1.85 µM | HOP-62 3.79 µM | TK-10 2.2 µM | SF-268 4.03 µM | CAKI-1 2.12 µM | SW-620 3.58 µM | HCT-116 2.87 µM | OVCAR-4 2.9 µM | K562 2.18 µM | LOX IMVI 2 µM | NCI-H226 2.43 µM | CCRF-CEM 2.61 µM | MDA-N 2.78 µM | NCI/ADR-RES 3.09 µM | SK-MEL-5 1.84 µM | HL-60 2.43 µM
2.29 µM: HCT-15

Cc1[nH]nc(C(=O)N/N=C/c2ccccc2Cl)c1/N=N\N(C)C
inactive: M14 > 100 µM | SN12C > 54.3 µM | UACC-62 > 100 µM | HOP-62 1.34 µM | TK-10 56.6 µM | BT-549 2.99 µM | SF-268 > 100 µM | CAKI-1 > 32.9 µM | SW-620 > 33 µM | HCT-116 4.05 µM | OVCAR-4 14.9 µM | LOX IMVI > 76.4 µM | NCI-H226 > 100 µM | CCRF-CEM 2.59 µM | NCI/ADR-RES 6.1 µM | SK-MEL-5 14.6 µM | HL-60 4.82 µM
> 100 µM: HCT-15
active: K562 0.802 µM

O=C1CCC2SC1CCC2=O
inactive: M14 > 100 µM | SN12C > 100 µM | HOP-62 > 100 µM | TK-10 > 100 µM | BT-549 > 100 µM | SF-268 > 100 µM | CAKI-1 > 100 µM | SW-620 > 100 µM | HCT-116 > 100 µM | OVCAR-4 > 100 µM | K562 > 100 µM | LOX IMVI > 100 µM | NCI-H226 > 100 µM | CCRF-CEM > 100 µM | NCI/ADR-RES > 100 µM | SK-MEL-5 > 100 µM | HL-60 > 100 µM
> 100 µM: HCT-15

CCCCCCCCCCCCCCCCOP(=O)([O-])OCC[N+](C)(C)C1CC(C)(C)N(O)C(C)(C)C1
> 100 µM: HCT-15
inactive: M14 > 100 µM | UACC-62 > 100 µM | HOP-62 > 100 µM | TK-10 > 100 µM | BT-549 > 100 µM | SF-268 > 100 µM | CAKI-1 > 100 µM | SW-620 > 100 µM | HCT-116 > 100 µM | OVCAR-4 > 100 µM | NCI-H226 > 100 µM | NCI/ADR-RES > 100 µM | SK-MEL-5 > 100 µM
